Measurements as given in patent US20220324865A1 (Bayer Aktiengesellschaft, priority 2018, published 2022).

The compounds below were run against T1, human EP3 receptor (Homo sapiens, UniProt P43115) (assay: Cellular in vitro assay for determining EP3 receptor activity (human EP3 cell line, sulprostone-stimulated calcium luminescence)). Conditions: CHO cells expressing human EP3 and mitochondrial Clytin; antagonist mode, sulprostone at EC50; read-out: EP3 CHO mtCLY ANTAG IC50.
T1 construct: expressed in transfected cells; host or cells: CHO K1 (Chinese Hamster Ovary), stably co-transfected with Galpha16 and mitochondrial clytin
T1 sequence (P43115 1-390): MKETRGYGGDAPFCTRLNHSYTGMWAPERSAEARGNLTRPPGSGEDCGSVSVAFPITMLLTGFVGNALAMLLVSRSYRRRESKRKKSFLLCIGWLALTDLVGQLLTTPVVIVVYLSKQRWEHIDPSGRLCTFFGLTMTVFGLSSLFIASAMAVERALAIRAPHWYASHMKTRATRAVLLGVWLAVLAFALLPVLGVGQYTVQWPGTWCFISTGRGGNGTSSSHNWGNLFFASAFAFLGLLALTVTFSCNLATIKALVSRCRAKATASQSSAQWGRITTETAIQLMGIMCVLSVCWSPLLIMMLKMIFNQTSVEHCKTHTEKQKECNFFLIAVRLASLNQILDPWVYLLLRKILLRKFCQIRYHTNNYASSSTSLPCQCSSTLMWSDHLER
Format: cell-based
Summary of the method: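 Antagonist activity was measured as inhibition of the luminescent calcium signal elicited by EC50 sulprostone, following 10 min compound pretreatment. The cell line was recombinant CHO K1 co-expressing human EP3, Gα16 and the photoprotein Clytin, reconstituted with coelenterazine.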
`Cc1ccc(-c2cn3nc(C(=O)NC(CO)C(F)(F)F)c(C4CC4)c3c(=O)[nH]2)cc1C(F)(F)F` (single isomer, unassigned) [6-249] was tested, and the IC50 was 3 nM.
In the case of `Cc1ccc(-c2cn3nc(C(=O)N[C@H]4c5ccccc5C[C@H]4O)c(C(F)(F)F)c3c(=O)[nH]2)cc1Cl` [6-185], the IC50 is reported as 2.35 nM.
With `CC(C)(O)[C@@H](NC(=O)c1nn2cc(-c3ccc(Cl)c(Cl)c3)[nH]c(=O)c2c1C1CC1)c1ccc(F)cc1` [Example 1-168, 3-Cyclopropyl-6-(3,4-dichlorophenyl)-N-[(1S)-1-(4-fluorophenyl)-2-hydroxy-2-methylpropyl]-4-oxo-4,5-dihydropyrazolo[1,5-a]pyrazine-2-carboxamide] the IC50 was 1.9 nM.
Work on `Cc1c(C(=O)N[C@H](C)c2ccc(F)cc2)nn2c(C)c(-c3ccc4ccccc4c3)[nH]c(=O)c12` [Example 1-23, N-[(1R)-1-(4-Fluorophenyl)ethyl]-3,7-dimethyl-6-(naphthalen-2-yl)-4-oxo-4,5-dihydropyrazolo-[1,5-a]pyrazine-2-carboxamide] yielded an IC50 of 5.55 nM.
`COc1ccc(C(C)NC(=O)c2cc3c(=O)[nH]c(-c4ccc5ccccc5c4)cn3n2)cc1` (stereo not shown) [Example 2-3, N-[1-(4-Methoxyphenyl)ethyl]-6-(2-naphthyl)-4-oxo-4,5-dihydropyrazolo[1,5-a]pyrazine-2-carboxamide] showed an IC50 of 1.65 nM.
`Cc1c(C(=O)NCc2ccccn2)nn2c(C)c(-c3ccc4ccccc4c3)[nH]c(=O)c12` [Example 3-70, 3,7-Dimethyl-6-(naphthalen-2-yl)-4-oxo-N-[(pyridin-2-yl)methyl]-4,5-dihydropyrazolo[1,5-a]pyrazine-2-carboxamide] gave an IC50 of 5.45 nM.
`O=C(NC1(c2ccc(F)cc2)CN(C2CC2)C1)c1nn2cc(-c3ccc(Cl)c(F)c3)[nH]c(=O)c2c1C1CC1` [6-104] showed an IC50 of 1.25 nM.
Compound `Cc1cccc(C)c1OCC(C)NC(=O)c1cc2c(=O)[nH]c(-c3ccc4ccccc4c3)cn2n1` (stereo not shown) [Example 2-30, N-[1-(2,6-Dimethylphenoxy)propan-2-yl]-6-(2-naphthyl)-4-oxo-4,5-dihydropyrazolo[1,5-a]pyrazine-2-carboxamide] has an IC50 of 5.45 nM.
With `Cc1cccc2ncc(-c3cn4nc(C(=O)NC(C)c5ccc(F)cc5)c(C(C)C)c4c(=O)[nH]3)cc12` (stereo not shown) [Example 4-11, N-[1-(4-Fluorophenyl)ethyl]-3-isopropyl-6-(5-methyl-3-quinolyl)-4-oxo-5H-pyrazolo[1,5-a]pyrazine-2-carboxamide] the IC50 was 0.735 nM.
`Cc1cccc2ncc(-c3cn4nc(C(=O)NC5(c6ccccc6)CCOCC5)c(C(C)C)c4c(=O)[nH]3)cc12` [Example 4-77, 3-Isopropyl-6-(5-methylquinolin-3-yl)-4-oxo-N-(4-phenyltetrahydro-2H-pyran-4-yl)-4,5-dihydropyrazolo[1,5-a]pyrazine-2-carboxamide] was tested, and the IC50 was 0.835 nM.
`CC(NC(=O)c1cc2c(=O)[nH]c(-c3ccc4ccccc4c3)cn2n1)c1ccc(Cl)cc1Cl` (stereo not shown) [Example 2-47, N-[1-(2,4-Dichlorphenyl)ethyl]-6-(2-naphthyl)-4-oxo-4,5-dihydropyrazolo[1,5-a]pyrazine-2-carboxamide] was tested, and the IC50 was 3.27 nM.
With `Cc1ccc(-c2cn3nc(C(=O)N[C@H]4c5ccccc5C[C@@H]4O)cc3c(=O)[nH]2)cc1C` [Example 1-80, 6-(3,4-Dimethylphenyl)-N-[(1S,2S)-2-hydroxy-2,3-dihydro-1H-inden-1-yl]-4-oxo-4,5-dihydropyrazolo[1,5-a]pyrazine-2-carboxamide] the IC50 was 6.68 nM.
Work on `Cc1cc(-c2cn3nc(C(=O)NC(C)C4CCC4)c(C(F)(F)F)c3c(=O)[nH]2)ccc1Cl` (single isomer, unassigned) [6-224] yielded an IC50 of 2 nM.
`Cc1cc(-c2cn3nc(C(=O)NC4CC(F)(F)C4)c(C(F)(F)F)c3c(=O)[nH]2)ccc1Cl` [6-225] showed an IC50 of 7.4 nM.
For `CCN1CCC(NC(=O)c2nn3cc(-c4ccc(C)c(F)c4)[nH]c(=O)c3c2C2CC2)(C(F)(F)F)C1` (single isomer, unassigned) [6-405], the IC50 was 4.7 nM.
Compound `COc1cccc(C(CCO)NC(=O)c2nn3cc(-c4cnc5cccc(C)c5c4)[nH]c(=O)c3c2C(C)C)c1` (stereo not shown) [Example 4-45, N-[3-Hydroxy-1-(3-methoxyphenyl)propyl]-3-isopropyl-6-(5-methyl-3-quinolyl)-4-oxo-5H-pyrazolo[1,5-a]pyrazine-2-carboxamide] has an IC50 of 0.61 nM.
In the case of `O=C(NCC(O)(C(F)(F)F)C(F)(F)F)c1nn2cc(-c3ccc(Cl)c(F)c3)[nH]c(=O)c2c1C1CC1` [6-88], the IC50 is reported as 4.55 nM.
With `CC(C)c1c(C(=O)N[C@@H](C)C2CC2)nn2cc(-c3ccc(Cl)c(F)c3)[nH]c(=O)c12` [6-539] the IC50 was 3.3 nM.
Work on `COC(=O)N1CC(NC(=O)c2cc3c(=O)[nH]c(-c4ccc(C)c(C)c4)cn3n2)(c2ccc(OC)cc2)C1` [Example 1-66, Methyl 3-({[6-(3,4-dimethylphenyl)-4-oxo-4,5-dihydropyrazolo[1,5-a]pyrazin-2-yl]carbonyl}amino)-3-(4-methoxyphenyl)azetidine-1-carboxylate] yielded an IC50 of 1.65 nM.
`CC(C)c1c(C(=O)N[C@@H](c2ccc(F)cc2)C(F)(F)CO)nn2cc(-c3ccc(Cl)c(F)c3)[nH]c(=O)c12` [6-536] showed an IC50 of 3.8 nM.
With `Cc1ccc(-c2cn3nc(C(=O)NC(C)C4CC4)c(C(F)(F)F)c3c(=O)[nH]2)cc1F` (racemic) [6-147] the IC50 was 5.6 nM.
In the case of `O=C(NCCc1ccccc1)c1cc2c(=O)[nH]c(-c3ccc4c(c3)OCCO4)cn2n1` [6-21], the IC50 is reported as 5.35 nM.
For `Cc1cccc2ncc(-c3cn4nc(C(=O)NCc5ccccn5)c(C(C)C)c4c(=O)[nH]3)cc12` [Example 4-26, 6-(5-Methylquinolin-3-yl)-4-oxo-3-(propan-2-yl)-N-[(pyridin-2-yl)methyl]-4,5-dihydropyrazolo[1,5-a]pyrazine-2-carboxamide], the IC50 was 2.75 nM.
Compound `Cc1ccc(-c2cn3nc(C(=O)NC(C)c4ccc(O)cc4)cc3c(=O)[nH]2)cc1C` (single isomer, unassigned) [6-349] has an IC50 of 0.88 nM.
Compound `Cc1cc(-c2cn3nc(C(=O)N[C@H](C)C4CC4)c(C(F)(F)F)c3c(=O)[nH]2)ccc1Cl` [6-218] has an IC50 of 1.95 nM.
`COc1ccc(C2(NC(=O)c3cc4c(=O)[nH]c(-c5ccc6ccccc6c5)cn4n3)CN(C(=O)OC(C)(C)C)C2)cn1` [Example 1-6, tert.-Butyl 3-(6-methoxypyridin-3-yl)-3-({[6-(naphthalen-2-yl)-4-oxo-4,5-dihydropyrazolo[1,5-a]-pyrazin-2-yl]carbonyl}amino)azetidine-1-carboxylate] was tested, and the IC50 was 1.28 nM.
For `Cc1ccc(-c2cn3nc(C(=O)NCCC(O)C(F)(F)F)c(C4CC4)c3c(=O)[nH]2)cc1F` (single isomer, unassigned) [6-367], the IC50 was 0.69 nM.
For `Cc1ccc(-c2cn3nc(C(=O)NC(c4ccc(F)cc4)C4(O)CC4)c(C4CC4)c3c(=O)[nH]2)cc1F` (single isomer, unassigned) [6-383], the IC50 was 1.6 nM.
Compound `Cc1ccc(-c2cn3nc(C(=O)NC(CN4CCOCC4)c4ccc(F)cc4)c(C4CC4)c3c(=O)[nH]2)cc1C` (racemic) [6-441] has an IC50 of 1.45 nM.
Work on `Cc1nn(C(CNC(=O)c2cc3c(=O)[nH]c(-c4ccc5ccccc5c4)cn3n2)C(C)C)c(C)c1Cl` (stereo not shown) [Example 2-20, N-[2-(4-Chloro-3,5-dimethyl-1H-pyrazol-1-yl)-3-methylbutyl]-6-(2-naphthyl)-4-oxo-4,5-dihydropyrazolo[1,5-a]pyrazine-2-carboxamide] yielded an IC50 of 9.75 nM.
With `Cc1ccc(-c2cn3nc(C(=O)NC(C)CN4CCOCC4)c(C4CC4)c3c(=O)[nH]2)cc1C` (racemic) [6-450] the IC50 was 12 nM.
`Cc1cccc2ncc(-c3cn4nc(C(=O)NC(C)c5ccc(S(C)(=O)=O)cc5)c(C(C)C)c4c(=O)[nH]3)cc12` (stereo not shown) [Example 4-61, 3-Isopropyl-6-(5-methyl-3-quinolyl)-N-[1-(4-methylsulfonylphenyl)ethyl]-4-oxo-5H-pyrazolo[1,5-a]pyrazine-2-carboxamide] was tested, and the IC50 was 1.8 nM.
`C[C@H](NC(=O)c1nn2cc(-c3ccc(Cl)c(F)c3)[nH]c(=O)c2c1C1CC1(F)F)C1CC1` (stereo partly shown) [6-566] was tested, and the IC50 was 2.25 nM.
With `Cc1ccc(-c2cn3nc(C(=O)NCC(O)(C(F)(F)F)C(F)(F)F)c(C4CC4)c3c(=O)[nH]2)cc1C` [6-434] the IC50 was 1.95 nM.
With `Cc1cccc2ncc(-c3cn4nc(C(=O)NCc5cc[nH]n5)c(C(C)C)c4c(=O)[nH]3)cc12` [Example 4-14, 6-(5-Methylquinolin-3-yl)-4-oxo-3-(propan-2-yl)-N-[(1H-pyrazol-3-yl)methyl]-4,5-dihydropyrazolo[1,5-a]pyrazine-2-carboxamide] the IC50 was 2.5 nM.
`COc1cc(-c2cn3nc(C(=O)N[C@@H](C)C4CC4)c(C4CC4)c3c(=O)[nH]2)ccc1Cl` [6-481] showed an IC50 of 0.57 nM.
For `COC[C@H](NC(=O)c1cc2c(=O)[nH]c(-c3ccc4ccccc4c3)cn2n1)c1ccccc1` [Example 1-2, N-[(1R)-2-Methoxy-1-phenylethyl]-6-(naphthalen-2-yl)-4-oxo-4,5-dihydropyrazolo[1,5-a]pyrazine-2-carboxamide], the IC50 was 2.5 nM.
`Cc1cc(-c2cn3nc(C(=O)N[C@H](C)C(C)(C)C)c(C4CC4)c3c(=O)[nH]2)ccc1Cl` [6-318] was tested, and the IC50 was 3.2 nM.
`Cc1cccc2ncc(-c3cn4nc(C(=O)N[C@H](CCO)c5ccccc5)cc4c(=O)[nH]3)cc12` [Example 1-114, N-[(1R)-3-Hydroxy-1-phenylpropyl]-6-(5-methylquinolin-3-yl)-4-oxo-4,5-dihydropyrazolo[1,5-a]-pyrazine-2-carboxamide] gave an IC50 of 3.15 nM.
`CN(CCNC(=O)c1nn2cc(-c3ccc4ccccc4c3)[nH]c(=O)c2c1C(F)(F)F)C1CC1` [6-517] gave an IC50 of 4.2 nM.
